Data: PubChem BioAssay (NCI)
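Briefly, cells in 96-well plates were exposed to five compound concentrations for 48 h, and endpoints were estimated by linear interpolation. GI50 marks 50% less growth. TGI: concentration producing complete growth inhibition.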

What was measured:
Test in all cases: NCI-60 cell line screen, 48 h
[1] = tested on: OVCAR-8 ovarian
[2] = tested on: KM12 colon
[3] = tested on: SNB-19 CNS
[4] = tested on: T-47D breast
[5] = tested on: HCT-116 colon
[6] = tested on: SK-MEL-5 melanoma
[7] = tested on: IGROV1 ovarian
[8] = tested on: SN12C renal
[9] = tested on: SK-MEL-2 melanoma
[10] = tested on: RPMI-8226 leukemia
[11] = tested on: HOP-62 NSCLC
[12] = tested on: K-562 leukemia
[13] = tested on: SF-295 CNS
[14] = tested on: ACHN renal
[15] = tested on: CCRF-CEM leukemia
[16] = tested on: M14 melanoma
[17] = tested on: 786-0 renal
[18] = tested on: NCI-H23 lung
[19] = tested on: MDA-MB-231 breast
[20] = tested on: DU-145 prostate
[21] = tested on: SF-539 CNS
[22] = tested on: PC-3 prostate
[23] = tested on: A549 NSCLC
[24] = tested on: NCI-H226 lung
[25] = tested on: MALME-3M melanoma
[26] = tested on: RXF 393 renal
[27] = tested on: NCI/ADR-RES ovarian
[28] = tested on: MDA-MB-435
[29] = tested on: HCC-2998 colon

**Q.** `COC(=O)c1c2c(c[n+]([O-])c1C)C(=O)C=C(NCc1ccccc1)C2=O` was tested. Which GI50 [1] did it give?
**A.** Its GI50 is 220 nM.

**Q.** And the TGI [1]?
**A.** Its TGI is 787 nM.

**Q.** What about the GI50 [2] of the same molecule?
**A.** Its GI50 is 222 nM.

**Q.** And the TGI [2]?
**A.** The TGI was 785 nM.

**Q.** What about the GI50 [3] of the same molecule?
**A.** Its GI50 is 281 nM.

**Q.** What about the TGI [3] of the same molecule?
**A.** Its TGI is 954 nM.

**Q.** What about the GI50 [4] of the same molecule?
**A.** The GI50 was 197 nM.

**Q.** What about the TGI [4] of the same molecule?
**A.** The TGI was 653 nM.

**Q.** And the GI50 [5]?
**A.** The GI50 was 189 nM.

**Q.** What about the TGI [5] of the same molecule?
**A.** Its TGI is 586 nM.

**Q.** And the GI50 [6]?
**A.** Its GI50 is 140 nM.

**Q.** And the TGI [6]?
**A.** The TGI was 274 nM.

**Q.** What about the GI50 [7] of the same molecule?
**A.** The GI50 was 167 nM.

**Q.** What about the TGI [7] of the same molecule?
**A.** The TGI was 389 nM.

**Q.** What about the GI50 [8] of the same molecule?
**A.** Its GI50 is 156 nM.

**Q.** What about the TGI [8] of the same molecule?
**A.** The TGI was 298 nM.

**Q.** What about the GI50 [9] of the same molecule?
**A.** The GI50 was 171 nM.

**Q.** What about the TGI [9] of the same molecule?
**A.** The TGI was 363 nM.

**Q.** What about the GI50 [10] of the same molecule?
**A.** The GI50 was 258 nM.

**Q.** And the TGI [10]?
**A.** Its TGI is 843 nM.

**Q.** And the GI50 [11]?
**A.** Its GI50 is 209 nM.

**Q.** What about the TGI [11] of the same molecule?
**A.** The TGI was 590 nM.

**Q.** What about the GI50 [12] of the same molecule?
**A.** Its GI50 is 192 nM.

**Q.** What about the TGI [12] of the same molecule?
**A.** The TGI was 1860 nM.

**Q.** What about the GI50 [13] of the same molecule?
**A.** Its GI50 is 154 nM.

**Q.** And the TGI [13]?
**A.** The TGI was 298 nM.

**Q.** And the GI50 [14]?
**A.** Its GI50 is 210 nM.

**Q.** And the TGI [14]?
**A.** Its TGI is 579 nM.

**Q.** What about the GI50 [15] of the same molecule?
**A.** The GI50 was 264 nM.

**Q.** What about the TGI [15] of the same molecule?
**A.** Its TGI is 955 nM.

**Q.** What about the GI50 [16] of the same molecule?
**A.** The GI50 was 161 nM.

**Q.** And the TGI [16]?
**A.** Its TGI is 315 nM.

**Q.** And the GI50 [17]?
**A.** Its GI50 is 295 nM.

**Q.** And the TGI [17]?
**A.** The TGI was 1220 nM.

**Q.** What about the GI50 [18] of the same molecule?
**A.** Its GI50 is 169 nM.

**Q.** What about the TGI [18] of the same molecule?
**A.** The TGI was 421 nM.

**Q.** And the GI50 [19]?
**A.** The GI50 was 200 nM.

**Q.** And the TGI [19]?
**A.** The TGI was 618 nM.

**Q.** And the GI50 [20]?
**A.** The GI50 was 172 nM.

**Q.** And the TGI [20]?
**A.** Its TGI is 316 nM.

**Q.** What about the GI50 [21] of the same molecule?
**A.** The GI50 was 182 nM.

**Q.** And the TGI [21]?
**A.** Its TGI is 353 nM.

**Q.** What about the GI50 [22] of the same molecule?
**A.** Its GI50 is 208 nM.

**Q.** What about the TGI [22] of the same molecule?
**A.** The TGI was 996 nM.

**Q.** And the GI50 [23]?
**A.** Its GI50 is 227 nM.

**Q.** What about the TGI [23] of the same molecule?
**A.** Its TGI is 564 nM.

**Q.** And the GI50 [24]?
**A.** Its GI50 is 338 nM.

**Q.** And the TGI [24]?
**A.** Its TGI is 1490 nM.

**Q.** What about the GI50 [25] of the same molecule?
**A.** The GI50 was 42.3 nM.

**Q.** What about the TGI [25] of the same molecule?
**A.** Its TGI is 153 nM.

**Q.** And the GI50 [26]?
**A.** Its GI50 is 197 nM.

**Q.** And the TGI [26]?
**A.** The TGI was 521 nM.

**Q.** What about the GI50 [27] of the same molecule?
**A.** The GI50 was 237 nM.

**Q.** And the TGI [27]?
**A.** The TGI was 798 nM.

**Q.** And the GI50 [28]?
**A.** The GI50 was 125 nM.

**Q.** And the TGI [28]?
**A.** Its TGI is 255 nM.

**Q.** What about the GI50 [29] of the same molecule?
**A.** Its GI50 is 213 nM.

**Q.** What about the TGI [29] of the same molecule?
**A.** The TGI was 492 nM.
